In ChEMBL document CHEMBL3879909, “Piperidin-4-yl azetidine derivatives as JAK1 inhibitors” (2014):

Columns and labels:
Homo sapiens = species on record: Homo sapiens; assay: Selectivity ratio of IC50 for human N-terminal His-tagged JAK2 catalytic domain (828 to 1132 residues) to IC50 for human N-terminal His-tagged JAK1 catalytic domain (837 to 1142 residues)
[1] = molecular target: Tyrosine-protein kinase JAK1 (Homo sapiens, UniProt P23458); assay: Inhibition of human N-terminal His-tagged JAK1 catalytic domain (837 to 1142 residues) expressed in baculovirus infected insect cells assessed as decrease in phosphorylation of biotinylated peptide substrate after 1 hr in presence of 1 mM ATP by HTRF method
[2] = molecular target: Tyrosine-protein kinase JAK2 (Homo sapiens, UniProt O60674); assay: Inhibition of human N-terminal His-tagged JAK2 catalytic domain (828 to 1132 residues) expressed in baculovirus infected insect cells assessed as decrease in phosphorylation of biotinylated peptide substrate after 1 hr in presence of 1 mM ATP by HTRF method
Chain of Tyrosine-protein kinase JAK2 (O60674 whole entry, the tested form may be a part): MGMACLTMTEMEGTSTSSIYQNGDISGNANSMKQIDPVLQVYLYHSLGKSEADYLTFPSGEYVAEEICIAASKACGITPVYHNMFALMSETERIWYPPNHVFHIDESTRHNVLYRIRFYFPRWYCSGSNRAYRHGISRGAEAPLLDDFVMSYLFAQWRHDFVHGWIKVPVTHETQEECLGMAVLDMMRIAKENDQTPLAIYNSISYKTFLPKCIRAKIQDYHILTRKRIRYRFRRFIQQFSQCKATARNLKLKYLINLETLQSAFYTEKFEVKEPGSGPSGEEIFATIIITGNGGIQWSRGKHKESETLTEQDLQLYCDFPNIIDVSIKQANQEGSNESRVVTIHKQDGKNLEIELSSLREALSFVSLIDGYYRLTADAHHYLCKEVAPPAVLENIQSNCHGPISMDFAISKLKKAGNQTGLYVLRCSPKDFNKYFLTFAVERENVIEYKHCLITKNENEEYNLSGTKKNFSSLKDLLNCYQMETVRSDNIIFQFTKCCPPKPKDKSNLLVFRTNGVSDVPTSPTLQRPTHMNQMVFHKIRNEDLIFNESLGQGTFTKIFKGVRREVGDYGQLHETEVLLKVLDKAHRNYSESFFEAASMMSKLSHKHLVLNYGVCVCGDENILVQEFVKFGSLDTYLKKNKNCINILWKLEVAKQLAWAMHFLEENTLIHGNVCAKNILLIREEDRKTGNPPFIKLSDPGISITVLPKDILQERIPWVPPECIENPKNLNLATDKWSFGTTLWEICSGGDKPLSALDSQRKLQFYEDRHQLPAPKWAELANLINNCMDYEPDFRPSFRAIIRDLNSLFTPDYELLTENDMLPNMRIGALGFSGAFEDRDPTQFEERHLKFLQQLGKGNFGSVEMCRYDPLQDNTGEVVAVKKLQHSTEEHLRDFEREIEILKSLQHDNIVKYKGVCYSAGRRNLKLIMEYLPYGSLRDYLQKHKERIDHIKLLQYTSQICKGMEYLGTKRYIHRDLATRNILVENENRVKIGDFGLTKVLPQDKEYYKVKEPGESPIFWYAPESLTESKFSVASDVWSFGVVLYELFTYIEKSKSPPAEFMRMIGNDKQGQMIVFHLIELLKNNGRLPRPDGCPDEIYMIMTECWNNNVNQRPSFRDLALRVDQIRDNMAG

Chain of Tyrosine-protein kinase JAK1 (P23458 whole entry, the tested form may be a part): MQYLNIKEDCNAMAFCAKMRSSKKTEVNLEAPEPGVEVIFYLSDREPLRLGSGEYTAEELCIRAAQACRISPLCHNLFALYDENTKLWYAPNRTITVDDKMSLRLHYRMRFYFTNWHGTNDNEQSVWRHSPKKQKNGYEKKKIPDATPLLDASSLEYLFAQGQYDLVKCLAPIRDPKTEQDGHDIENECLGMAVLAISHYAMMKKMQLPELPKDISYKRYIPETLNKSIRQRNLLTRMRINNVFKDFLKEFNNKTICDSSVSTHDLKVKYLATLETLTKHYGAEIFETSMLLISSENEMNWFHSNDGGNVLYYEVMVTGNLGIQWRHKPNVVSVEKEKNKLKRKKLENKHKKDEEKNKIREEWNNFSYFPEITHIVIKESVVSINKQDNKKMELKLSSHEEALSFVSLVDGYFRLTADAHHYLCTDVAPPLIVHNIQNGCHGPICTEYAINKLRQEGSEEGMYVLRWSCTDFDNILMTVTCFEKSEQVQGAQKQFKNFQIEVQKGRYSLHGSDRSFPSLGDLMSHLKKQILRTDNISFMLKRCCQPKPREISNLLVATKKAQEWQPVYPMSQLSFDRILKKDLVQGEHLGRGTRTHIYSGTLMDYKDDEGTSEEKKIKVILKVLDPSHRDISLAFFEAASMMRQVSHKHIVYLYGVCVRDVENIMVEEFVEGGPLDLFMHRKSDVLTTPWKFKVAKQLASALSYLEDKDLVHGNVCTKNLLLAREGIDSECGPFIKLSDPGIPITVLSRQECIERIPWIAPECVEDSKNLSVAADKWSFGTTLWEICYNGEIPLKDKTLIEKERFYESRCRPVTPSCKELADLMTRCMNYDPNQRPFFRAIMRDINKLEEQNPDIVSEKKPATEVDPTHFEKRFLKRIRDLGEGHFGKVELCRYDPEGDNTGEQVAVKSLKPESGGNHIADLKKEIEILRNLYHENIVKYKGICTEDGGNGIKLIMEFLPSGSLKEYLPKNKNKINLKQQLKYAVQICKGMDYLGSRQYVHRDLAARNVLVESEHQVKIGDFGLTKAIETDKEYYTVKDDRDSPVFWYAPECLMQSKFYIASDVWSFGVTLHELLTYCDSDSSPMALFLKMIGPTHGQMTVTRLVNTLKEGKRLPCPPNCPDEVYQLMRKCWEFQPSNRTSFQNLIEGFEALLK

Ratio IC50 (Homo sapiens)	IC50 [1]	IC50 [2]	SMILES
10.4 to 20.3			N#CCC1(n2cc(-c3ncnc4[nH]ccc34)cn2)CN(C2CCN(C(=O)Nc3cnccc3C(F)(F)F)CC2)C1
59.2	≤ 5 nM	> 100 nM	CO[C@@H]1CN(C(=O)c2ccnc(C(F)(F)F)c2F)CC[C@@H]1N1CC(CC#N)(n2cc(-c3ncnc4[nH]ccc34)cn2)C1 (relative stereo)
7.1 to 24.4			N#CCC1(n2cc(-c3ncnc4[nH]ccc34)cn2)CN(C2CCN(C(=O)OCc3cc(F)cc(F)c3)CC2)C1
21.4	5 to 20 nM	> 100 nM	N#CCC1(n2cc(-c3ccnc4[nH]ccc34)cn2)CN(C2CCN(C(=O)c3ccnc(C(F)(F)F)c3F)CC2)C1
